# Assay results reported in patent US20100021989A1, “COMPOSITIONS AND METHODS OF CONTROLLING AND ADMINISTERING REDOX SPECIFIC FORMS OF DRUGS, FOODS AND DIETARY SUPPLEMENTS” (priority 2008, published 2010).
# Where two headings read alike, the source gives them in different places.
# Legend:
# [1] = Toxicity, Neutral Red Uptake; details: host cells
# [2] = molecular target: Bcl-xL (Homo sapiens, UniProt Q07817); details: Kitada et al., 2003; cited from earlier work
# [3] = tested on: HSV-1; assay: HSV-1 inactivation: virus mixed with compound, infectivity titrated on Vero cells (reduction of virus titer); format: cell-based, herpes simplex virus 1; details: varying pH
# Description: (§1) Experimental—HSV-1 and 2: Herpes simplex viruses were titrated by inoculation of 10-fold dilutions (HSV-1 was inoculated into Vero cell cultures, and HSV-2 was inoculated into CV1 cultures) in 96-well microtiter tissue culture plates. A virus dilution (0.1 ml) in RPMI 1640 with 1% fetal bovine serum (MM) was inoculated into each well with three wells per dilution. The plates were kept for 2 to 5 days, depending on the virus, and examined daily for cytopathic effect. Virus titers were calculated by the method of Reed and Muench (1938).
# (§2) About 10^5 50% tissue culture infective doses (TCID50s) of virus were mixed with varying concentrations (12.5, 25, 50, 75 and 100 μM) of reduced and oxidized EGCG in MM and incubated at 37° C. for 30 min. The following samples were tested: The reduced form of EGCG (#1); the partially oxidized form of EGCG (#2); the quinone or fully oxidized form of EGCG with the addition of a copper catalyst (#3); and quinone or fully oxidized form of EGCG with the addition of a zinc catalyst (#4). In Samples #3 and #4, the addition of the copper and zinc catalysts, respectively, raised the pH to 9.0-9.5. These compounds were totally oxidized, thereby taking a quinone form. […]
# (§3) Virus mixed with MM alone was used as a control. […] The 10^−1 to 10^−5 dilutions were inoculated into monolayers of Vero or CV1 cells, and the virus titers were determined as described above. […]
# [4] = tested on: HCMV (human cytomegalovirus); assay: Antiviral drug screen of EGCG, HCMV; format: cell-based
# [5] = tested on: HSV-2 (herpes simplex 2); assay: Antiviral drug screen of EGCG, HSV-2; format: cell-based
# [6] = tested on: host cells
# [7] = format: physicochemical
# Excerpt: An electrochemical cell was fabricated using a fine porosity glass frit in one-inch-diameter glass tubing. The electrochemical cell houses the counter electrode and keeps the Ag/AgCl reference electrode and platinum working electrode separate from the counter electrode. This addition to the system allowed the preparation of bulk solution. The working electrode and reference electrode compartment was continuously stirred using a small stir bar and a magnetic stirrer to minimize gradient effects at the working electrode. The EGCG solutions were oxidized using a positive potential to a visual end point. UV-visible spectral data were collected during these experiments, including the absorbance at 270 nm and 320 nm, corresponding to the phenol and quinone forms of EGCG, respectively. In addition, the open cell potential was recorded as experiments progressed. The active redox potentials and experimental endpoints were determined based on current and visual color changes to oligomers. Due to solution evaporation over time, the ratio of absorbance at 320 nm divided by the absorbance at 270 nm was determined in order to account for overall absorption increases. […] In addition, the visual change in solution color from clear to yellow and pink was also monitored as an indicator of degree of oxidation. Stirred EGCG solutions in 0.1 M phosphate buffer with 0.1 M KCl at pH 6.0 were monitored. The open circuit potential was initially 220 mV. […] A duplicate solution was left uncovered on the table next to the electrochemical cell as the control. After seven hours, no change in either solution at 270 and 320 nm was found. At this point the experimental potential was increased to 1000 mV for a further 16 hours (Table 3A). […] The pH of the solutions remained 6.0 throughout the experiment. All data support the forced oxidation of EGCG at pH 6.0. Solutions were allowed to sit for two more days to observe the stability of the electrochemically-induced changes (Table 3C). Solutions were pH-modified following electrochemical oxidation to observe stability. […] These samples were open to air, and no other precautions were taken to prevent oxidation by atmospheric oxygen.
# [8] = tested on: HSV-1 (herpes simplex 1); assay: Antiviral drug screen of EGCG, HSV-1; format: cell-based
# [9] = tested on: VZV (varicella zoster virus); assay: Antiviral drug screen of EGCG, VZV; format: cell-based
# [10] = tested on: HSV-2; assay: HSV-2 inactivation: virus mixed with compound, infectivity titrated on CV1 cells (reduction of virus titer); format: cell-based, herpes simplex virus 2; details: varying pH
# Description: as §1, §2, §3
# [11] = pH 7.4; cited from earlier work
# [12] = tested on: multidrug-resistant strain (33591) of Staphylococcus aureus; assay: Antibacterial assay, pre-incubation then colony-forming units counted; format: cell-based; details: for Killing of bacteria (cfu): 0.08% EGCG
# Description: Antibacterial activity: EGCG was tested as an antibacterial agent against a multidrug-resistant strain (33591) of Staphylococcus aureus. After pre-incubating the cells with various concentrations of EGCG at pH 6, 7.5, and 8.5, cells were plated and colony-forming units (cfu) were counted as a measure of efficacy (FIG. 12).
# [13] = format: physicochemical; remark: listed apart in the source
# Excerpt: UV-Visible Absorption Spectra vs. pH: EGCG solutions undergo an immediate spectral absorption shift as the pH increases from acidic to alkaline, with a change noted at pH 7 when a peak at 320 nm appears and the dominant phenol peak at 272 nm begins to decrease (FIG. 3A). The 320 nm peak likely represents the absorbance of the quinone form of EGCG. […] However, if the alkaline solution is re-acidified within minutes, the reaction is reversible. […] EPR vs. pH study of EGCG: The EPR and UV-visible spectra of EGCG, stabilized with 0.2 M MgCl2, were measured as a function of pH (i.e., 6.03, 6.54, 7.03, 7.57, 8.09, 8.56, 9.10, 9.56). A corresponding increase in a peak at ˜314 nm and a g=2 EPR spectrum occurred with increasing pH. […] This is in agreement with the known stabilizing effect on semiquinone free radicals by divalent cations like Mg^+2. […] The multiple peaks and valleys in FIGS. 5a and 5b are the fine structure detail of a high concentration radical solution. EPR detects unpaired spinning electrons due to the absorption of microwaves in an applied magnetic field. The peak splitting is due to interaction of the lone electron's spin magnetic field with environmental magnetic fields. […]
# [14] = cited from earlier work
# [15] = tested on: Vero cells; assay: Toxicity to Vero cells, Cell Titer 96 Aqueous Cell Proliferation Assay
# [16] = Control (no potential), pH 6.0, 43 hours
# [17] = Control (no potential), pH 6.0, 55 hours
# [18] = Control (no potential), pH 6.0, 68 hours
# [19] = Control (no potential, uncovered), pH 6.0, 23 hours
# [20] = Experiment, pH 6.0, 800 mV 7 h then 1000 mV 16 h, 23 hours
# [21] = Experiment, pH 6.0, 1500 mV from 23 h, 43 hours
# [22] = Experiment, pH 6.0, 1500 mV from 23 h, 55 hours
# [23] = Experiment, pH 6.0, 1500 mV from 23 h, 68 hours
# [24] = Experiment, pH 6.0, left to sit after electrochemical oxidation, 73 hours
# [25] = Experiment, pH 6.0, left to sit after electrochemical oxidation, 79 hours
# [26] = Experiment, pH 6.0, left to sit after electrochemical oxidation, 120 hours
# [27] = cyclic voltammetry (Kilmartin and Hsu, 2003)
# Sequence of Bcl-xL (Q07817 whole entry): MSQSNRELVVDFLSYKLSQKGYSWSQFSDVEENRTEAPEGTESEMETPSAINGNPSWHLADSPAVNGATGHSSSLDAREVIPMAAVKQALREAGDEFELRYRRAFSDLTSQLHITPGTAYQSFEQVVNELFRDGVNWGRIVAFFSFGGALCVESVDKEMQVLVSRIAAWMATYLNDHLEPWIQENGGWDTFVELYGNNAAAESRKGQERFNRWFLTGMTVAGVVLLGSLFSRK
compound,measurement,setting,value
Nc1nc2c(ncn2COCCO)c(=O)[nH]1 [ACV],CC50,[1],> 100 µg/mL
"O=C(O[C@@H]1Cc2c(O)cc(O)cc2O[C@H]1c1ccc(O)c(O)c1)c1cc(O)c(O)c(O)c1 [CG, catechin-3 gallate]",Ki,[2],nanomolar range
"O=C(O[C@@H]1Cc2c(O)cc(O)cc2O[C@@H]1c1cc(O)c(O)c(O)c1)c1cc(O)c(O)c(O)c1 [EGCG, (−)-Epigallocatechingallate]",Effect of pH on activity against HSV-1 (FIG. 9),[3],greater antiviral activity at the more alkaline pH's
same,EC-50,[4]; HCMV,6.9 µg/mL
same,EC-90,[4]; HCMV,40 µg/mL
same,CC-50,[4]; cytotoxicity in HCMV screen,>40 µg/mL
same,EC-50,[5]; HSV-2,7.6 µg/mL
same,EC-90,[5]; HSV-2,98.6 µg/mL
same,CC-50,[5]; cytotoxicity in HSV-2 screen,857 µg/mL
same,"CC50, TOXICITY Neutral Red Uptake",[6],CC50 > 200
same,"Open circuit potential, initial","[7]; 0.1 M phosphate buffer with 0.1 M KCl, pH 6.0",220 mV
same,320 nm/270 nm,[7]; [16],0.174
same,Absorbance 270 nm,[7]; [16],0.448
same,Absorbance 320 nm,[7]; [16],0.078
same,320 nm/270 nm,[7]; [17],0.178
same,Absorbance 270 nm,[7]; [17],0.471
same,Absorbance 320 nm,[7]; [17],0.084
same,320 nm/270 nm,[7]; [18],0.189
same,Absorbance 270 nm,[7]; [18],0.438
same,Absorbance 320 nm,[7]; [18],0.083
same,320 nm/270 nm,[7]; [19],0.170
same,Absorbance 270 nm,[7]; [19],0.424
same,Absorbance 320 nm,[7]; [19],0.072
same,320 nm/270 nm,[7]; [20],0.256
same,Absorbance 270 nm,[7]; [20],0.418
same,Absorbance 320 nm,[7]; [20],0.107
same,320 nm/270 nm,[7]; [21],0.396
same,Absorbance 270 nm,[7]; [21],0.432
same,Absorbance 320 nm,[7]; [21],0.171
same,320 nm/270 nm,[7]; [22],0.467
same,Absorbance 270 nm,[7]; [22],0.422
same,Absorbance 320 nm,[7]; [22],0.197
same,320 nm/270 nm,[7]; [23],0.522
same,Absorbance 270 nm,[7]; [23],0.429
same,Absorbance 320 nm,[7]; [23],0.224
same,320 nm/270 nm,[7]; [24],0.533
same,Absorbance 270 nm,[7]; [24],0.430
same,Absorbance 320 nm,[7]; [24],0.229
same,320 nm/270 nm,[7]; [25],0.538
same,Absorbance 270 nm,[7]; [25],0.426
same,Absorbance 320 nm,[7]; [25],0.229
same,320 nm/270 nm,[7]; [26],0.546
same,Absorbance 270 nm,[7]; [26],0.436
same,Absorbance 320 nm,[7]; [26],0.238
same,Stability of electrochemically oxidized solution (320 nm absorbance),[7]; pH 6,stable for over two days
same,Oxidation of control sample,"[7]; pH 6.0, no potential, uncovered, 23 hours",did not oxidize
same,Stability of pH-modified solution after electrochemical oxidation (FIG. 14),[7]; pH 6.26,relatively stable after 7 days
same,EC-50,[8]; HSV-1,24.1 µg/mL
same,EC-90,[8]; HSV-1,121 µg/mL
same,CC-50,[8]; cytotoxicity in HSV-1 screen,857 µg/mL
same,EC-50,[9]; VZV,4.1 µg/mL
same,EC-90,[9]; VZV,>40 µg/mL
same,CC-50,[9]; cytotoxicity in VZV screen,>40 µg/mL
same,Effect of pH on activity against HSV-2 (FIG. 9),[10],greater antiviral activity at the more alkaline pH's
same,Time to complete degradation,[11],6 h
same,Killing of bacteria (cfu),[12]; pH 7.5,effective at killing nearly all the bacteria
same,Killing of bacteria (cfu),[12]; pH 8.5,effective at killing nearly all the bacteria
same,Bactericidal effect (cfu),"[12]; 0.4-0.8% EGCG, pH 6, 7.5 and 8.5",strongly bactericidal
same,Effectiveness (cfu),[12]; concentrations higher than 0.4-0.8% EGCG,less effective
same,Stability of 320 nm oxidation peak,[13],disappears within hours
same,Decay time of semiquinone EPR signal,"[13]; after basification, 0.2 M MgCl2, no electrochemical modulation",30 min
same,"Oxidation peak potential, first range",[14]; [27],105 mV
same,"Oxidation peak potential, second range",[14]; [27],213 mV
same,Reduction potential,"[14]; pH 7, versus a normal hydrogen electrode",430 mV
same,Ki,[2],nanomolar range
"O=C(O[C@@H]1Cc2c(O)cc(O)cc2O[C@H]1c1cc(O)c(O)c(O)c1)c1cc(O)c(O)c(O)c1 [GCG, gallocatechin-3 gallate]",Ki,[2],nanomolar range
O=C(O[C@@H]1Cc2c(O)cc(O)cc2O[C@@H]1c1cc(O)c(O)c(O)c1)c1cc(O)c(O)c(O)c1 [Reduced EGCG],"Cell Titer 96 assay reading, mean ± SD","[15]; 50 μM, 24 hours after addition",0.753 ± 0.027
same,"Cell Titer 96 assay reading, mean ± SD","[15]; 50 μM, 48 hours after addition",0.750 ± 0.033
same,"Cell Titer 96 assay reading, mean ± SD","[15]; 75 μM, 24 hours after addition",0.685 ± 0.052
same,"Cell Titer 96 assay reading, mean ± SD","[15]; 75 μM, 48 hours after addition",0.706 ± 0.026
same,"Cell Titer 96 assay reading, mean ± SD","[15]; 100 μM, 24 hours after addition",0.700 ± 0.043
same,"Cell Titer 96 assay reading, mean ± SD","[15]; 100 μM, 48 hours after addition",0.705 ± 0.019
epicatechin-3 gallate [ECG],Ki,[2],nanomolar range
